Assay results: paper PMC8523698, “Preclinical characterization of an intravenous coronavirus 3CL protease inhibitor for the potential treatment of COVID19” (Nature Communications, 2021)
Where “and” joins values, the source holds several entries; their conditions need not be identical. Equal values may be shown once. Read-outs that look alike come from different tables or passages of the source.

Key:
CYP3A4/5 [1] = biological target: T1, CYP3A4/5 (Homo sapiens, UniProt P08684); experiment: Time-dependent inhibition of CYP enzymes in human liver microsomes; conditions: CYP3A4; Simcyp interaction input
T1 sequence (P08684 whole entry): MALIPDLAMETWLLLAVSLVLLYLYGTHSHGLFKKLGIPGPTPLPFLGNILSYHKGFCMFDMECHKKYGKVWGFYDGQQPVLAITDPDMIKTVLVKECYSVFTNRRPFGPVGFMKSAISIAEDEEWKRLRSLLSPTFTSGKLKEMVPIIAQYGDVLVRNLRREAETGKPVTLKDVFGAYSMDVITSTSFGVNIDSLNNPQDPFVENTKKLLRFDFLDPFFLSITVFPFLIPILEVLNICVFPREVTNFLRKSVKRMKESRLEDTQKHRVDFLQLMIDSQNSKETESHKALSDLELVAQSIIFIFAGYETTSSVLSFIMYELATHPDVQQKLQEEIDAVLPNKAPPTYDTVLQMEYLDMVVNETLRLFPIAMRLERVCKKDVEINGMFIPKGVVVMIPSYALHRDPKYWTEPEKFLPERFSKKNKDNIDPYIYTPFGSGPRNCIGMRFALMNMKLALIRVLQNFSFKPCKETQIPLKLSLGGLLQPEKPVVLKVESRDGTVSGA

Human Elastase = Human Elastase (Homo sapiens, UniProt P08246); experiment: Mammalian protease panel; assay type: biochemical
Chain of Human Elastase (P08246 30-247 limits assumed): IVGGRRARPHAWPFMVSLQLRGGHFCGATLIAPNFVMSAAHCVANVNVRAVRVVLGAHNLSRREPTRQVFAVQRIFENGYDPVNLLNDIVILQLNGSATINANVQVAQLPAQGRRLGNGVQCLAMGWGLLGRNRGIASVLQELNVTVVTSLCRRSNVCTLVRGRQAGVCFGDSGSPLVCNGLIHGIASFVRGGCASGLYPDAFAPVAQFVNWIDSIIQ
Description: (§1) The respective protease in assay buffer (50 mM Tris with 100 mM sodium chloride and Brij 35 at pH = 8 except for cathepsin D pH = 3.5 and HIV pH = 5.5) was added to assay ready compound plates. The enzymatic reaction was initiated with the addition of indicated substrate in assay buffer. Initial rates were measured by following the fluorescence of the cleaved substrate (Ex/Em 355/460 […]) using a Spectramax (Molecular Devices) fluorescence plate reader in the kinetic format.
(§2) IC50 values were generated based on a four-parameter logistic fit model using ActivityBase software (IDBS). Percent activity values were calculated based on control wells containing no compound (100% activity) and wells containing a control compound (0% activity).

HIV-1 protease = HIV-1 protease (Human immunodeficiency virus type 1 group M subtype B, UniProt P04585); experiment: Mammalian protease panel; assay type: biochemical
Description: as §1, §2

Human Cathepsin B = Human Cathepsin B (Homo sapiens, UniProt P07858); experiment: Mammalian protease panel; assay type: biochemical
Description: as §1, §2

SARS-CoV-2 USA-WA1/2020 = experiment: Ad5-hACE2 SARS-CoV-2 mouse infection model; assay type: in vivo, BALB/c mice; conditions: 100 mg/kg BID from day 0; lungs day 3; individual mice
[2] = Plasma protein binding by equilibrium dialysis; conditions: for fraction unbound at 6 h, 5 uM / fraction unbound at 6 h / fraction unbound at 6 h, 3.44 uM: plasma
[3] = Metabolic stability in pooled human liver microsomes (intrinsic clearance); conditions: both, pH 7.5
CYP3A = experiment: Enzyme kinetics of metabolite formation in HLM and effect of CYP3A inhibitor ketoconazole
CYP3A4/5 [4] = biological target: T1, CYP3A4/5; experiment: Reversible CYP inhibition in human liver microsomes
SARS-CoV-2 = experiment: microbe, parasite or virus in culture; assay type: cell-based; conditions: Severe acute respiratory syndrome coronavirus 2, Vero C1008; N=3; read-out: EC50 ± Std. Dev
Human Caspase 2 = Human Caspase 2 (Homo sapiens, UniProt P42575); experiment: Mammalian protease panel; assay type: biochemical
Chain of Human Caspase 2 (P42575 170-325 limits assumed): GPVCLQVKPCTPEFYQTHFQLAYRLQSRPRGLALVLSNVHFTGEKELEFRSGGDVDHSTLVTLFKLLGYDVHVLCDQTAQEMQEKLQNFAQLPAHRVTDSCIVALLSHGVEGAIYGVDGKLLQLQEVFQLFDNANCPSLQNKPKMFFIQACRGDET
Chain of Human Caspase 2 (P42575 348-452 limits assumed): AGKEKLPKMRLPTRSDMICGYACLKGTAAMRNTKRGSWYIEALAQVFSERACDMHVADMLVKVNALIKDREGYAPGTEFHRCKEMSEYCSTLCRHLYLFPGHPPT

MHV-CoV 3CL^pro = MHV-CoV 3CL^pro (Murine coronavirus, UniProt P0C6X9); assay type: biochemical
Chain of MHV-CoV 3CL^pro (P0C6X9 3334-3635): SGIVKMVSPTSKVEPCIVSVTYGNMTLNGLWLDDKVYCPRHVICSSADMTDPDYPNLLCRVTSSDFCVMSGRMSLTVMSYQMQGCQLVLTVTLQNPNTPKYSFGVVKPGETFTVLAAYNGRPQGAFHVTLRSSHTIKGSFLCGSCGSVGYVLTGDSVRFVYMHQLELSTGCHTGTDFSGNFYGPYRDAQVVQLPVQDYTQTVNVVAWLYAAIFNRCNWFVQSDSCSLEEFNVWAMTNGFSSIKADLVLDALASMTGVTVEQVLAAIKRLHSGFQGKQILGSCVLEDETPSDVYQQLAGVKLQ

NL63-CoV 3CL^pro = NL63-CoV 3CL^pro (Human coronavirus NL63, UniProt P0C6X5); assay type: biochemical
Chain of NL63-CoV 3CL^pro (P0C6X5 2940-3242): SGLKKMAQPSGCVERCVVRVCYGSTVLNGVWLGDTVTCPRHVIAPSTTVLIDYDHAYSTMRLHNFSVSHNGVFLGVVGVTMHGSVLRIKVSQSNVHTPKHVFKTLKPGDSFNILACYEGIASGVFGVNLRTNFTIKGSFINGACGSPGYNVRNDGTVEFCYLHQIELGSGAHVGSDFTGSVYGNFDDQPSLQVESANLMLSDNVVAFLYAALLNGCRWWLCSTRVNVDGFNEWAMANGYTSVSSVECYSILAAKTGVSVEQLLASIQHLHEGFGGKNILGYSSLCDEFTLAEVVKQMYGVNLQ

HKU4-CoV 3CL^pro = HKU4-CoV 3CL^pro (Bat coronavirus HKU4, UniProt P0C6W3); assay type: biochemical; conditions: for Initial Velocity: triplicate, listed as Compound F2
Chain of HKU4-CoV 3CL^pro (P0C6W3 3292-3597 limits assumed): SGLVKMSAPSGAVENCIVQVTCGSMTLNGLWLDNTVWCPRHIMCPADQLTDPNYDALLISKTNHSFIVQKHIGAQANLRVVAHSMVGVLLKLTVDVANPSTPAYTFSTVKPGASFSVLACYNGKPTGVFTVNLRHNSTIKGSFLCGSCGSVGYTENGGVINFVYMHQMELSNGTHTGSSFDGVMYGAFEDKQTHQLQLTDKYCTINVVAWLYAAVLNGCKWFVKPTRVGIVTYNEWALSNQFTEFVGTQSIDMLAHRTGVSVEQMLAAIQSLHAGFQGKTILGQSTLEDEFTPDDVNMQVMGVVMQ

FIPV 3CL^pro = FIPV 3CL^pro (Feline coronavirus, UniProt Q98VG9); assay type: biochemical
Chain of FIPV 3CL^pro (Q98VG9 2904-3205): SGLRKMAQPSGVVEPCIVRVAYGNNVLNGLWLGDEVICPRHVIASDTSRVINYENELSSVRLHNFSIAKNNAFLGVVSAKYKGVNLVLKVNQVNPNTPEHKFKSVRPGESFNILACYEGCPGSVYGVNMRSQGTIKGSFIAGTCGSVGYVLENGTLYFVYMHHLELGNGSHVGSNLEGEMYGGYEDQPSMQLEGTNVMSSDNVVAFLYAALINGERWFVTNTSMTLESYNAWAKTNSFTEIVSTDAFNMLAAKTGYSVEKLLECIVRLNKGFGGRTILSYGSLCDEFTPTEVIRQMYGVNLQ

MATE1 = biological target: T2, MATE1 (Homo sapiens, UniProt Q96FL8); experiment: Transporter inhibition using transfected HEK293 cells
T2 sequence (Q96FL8 1-570): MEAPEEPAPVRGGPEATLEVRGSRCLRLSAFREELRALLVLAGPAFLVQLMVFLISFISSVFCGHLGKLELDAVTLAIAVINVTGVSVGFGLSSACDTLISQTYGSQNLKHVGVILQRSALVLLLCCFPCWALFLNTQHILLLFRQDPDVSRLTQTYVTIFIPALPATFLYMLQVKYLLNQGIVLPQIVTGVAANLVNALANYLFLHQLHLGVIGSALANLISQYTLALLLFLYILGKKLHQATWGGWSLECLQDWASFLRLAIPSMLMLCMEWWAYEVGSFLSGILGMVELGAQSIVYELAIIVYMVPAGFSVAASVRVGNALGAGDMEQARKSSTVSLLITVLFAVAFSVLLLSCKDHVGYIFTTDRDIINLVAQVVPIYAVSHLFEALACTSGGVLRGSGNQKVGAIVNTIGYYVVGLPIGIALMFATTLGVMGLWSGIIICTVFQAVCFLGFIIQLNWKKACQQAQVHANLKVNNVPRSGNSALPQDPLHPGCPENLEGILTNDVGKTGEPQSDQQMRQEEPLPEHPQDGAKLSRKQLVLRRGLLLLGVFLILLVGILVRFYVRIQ

[5] = Dog pharmacokinetic study; conditions: for clearance / half-life / Vd: male, Beagle, dog, plasma, iv; for Vd: Vdss
[6] = In vitro blood to plasma ratio; assay type: in vitro ADME; conditions: for Plasma concentration (Cp) / Whole blood concentration (Cb): human blood, substrate 1 µM
[7] = Metabolic stability and enzyme kinetics in liver S9 (conversion to PF-00835231)

With COc1cccc2[nH]c(C(=O)N[C@@H](CC(C)C)C(=O)N[C@@H](C[C@@H]3CCNC3=O)C(=O)CO)cc12 [PF-00835231] the “MBI Kapp” value (CYP3A4/5 [1]) was 163.000 µM, the IC50 (Human Elastase) was > 33 µM and the IC50 (HIV-1 protease) was > 11 µM. For the same compound, the IC50 (Human Cathepsin B) was 6 µM and 6.1 µM, the Lung viral titers (SARS-CoV-2 USA-WA1/2020) was 160 IU/mL and 240 IU/mL and 110 IU/mL and 3500 IU/mL and 1600 IU/mL and 1100 IU/mL and the Individual fraction unbound ([2]; Monkey Cynomologous plasma, 5.0 uM, replicates Day 1-3) was 0.429 and 0.445 and 0.467 and 0.489 and 0.396 and 0.428 and 0.46 and 0.501 and 0.390. For the same compound, the fraction unbound at 6 h, 5 uM ([2]; cynomolgus monkey, pH 7.4, Individual fraction unbound, Monkey Cynomologous plasma, 5.0 uM, replicates Day 1-3) was 0.44, the fraction unbound at 6 h, 5 uM ([2]; monkey, pH 7.4, Fraction unbound, Geomean, Monkey plasma, 5.0 uM, n 12) was 0.441 and the fraction unbound at 6 h ([2]; monkey, pH 7.4, Plasma fu, Vdss input) was 0.441. The fraction unbound at 6 h ([2]; monkey, pH 7.4, Unbound fraction fu (%CV), monkey plasma) was 0.441, the fraction unbound at 6 h, 5 uM ([2]; monkey, pH 7.4, fraction unbound Geomean, monkey plasma, 5.0 uM, n=12) was 0.441 and the microsomal CLint at 1 µM ([3]; liver microsomes) was 14 µL/min/mg. The microsomal CLint at 1 µM ([3]; pooled human liver microsomes) was 7.5 µL/min/mg, the “fm,CYP3A” value (CYP3A; formation of the metabolite from PF-00835231 in HLM) was 0.86 and the microsomal CLint (CYP3A; human, pooled human liver microsomes, pH 7.5) was 4.2 µL/min/mg. The Ki (CYP3A4/5 [4]) was 108 µM, the EC50 (SARS-CoV-2) was 60 ± 30 nM and the IC50 (Human Caspase 2) was > 33 µM. For the same compound, the Ki (MHV-CoV 3CL^pro) was 1.2 ± 0.9 nM, the Ki (NL63-CoV 3CL^pro) was 0.77 ± 0.52 nM and the “Initial Velocity” value (HKU4-CoV 3CL^pro; [Compound F2] 1.95312 nM) was 0.9709 and 0.9956 and 0.9685. For the same compound, the “Initial Velocity” value (HKU4-CoV 3CL^pro; [Compound F2] 3.90625 nM) was 0.9706 and 0.9741 and 0.9413, the “Initial Velocity” value (HKU4-CoV 3CL^pro; [Compound F2] 7.8125 nM) was 0.919 and 0.9344 and 0.9288 and the “Initial Velocity” value (HKU4-CoV 3CL^pro; [Compound F2] 20 nM) was 0.7972 and 0.7875 and 0.7775. For the same compound, the “Initial Velocity” value (HKU4-CoV 3CL^pro; [Compound F2] 30 nM) was 0.5859 and 0.5869 and 0.5914, the “Initial Velocity” value (HKU4-CoV 3CL^pro; [Compound F2] 40 nM) was 0.342 and 0.3124 and 0.3465 and the “Initial Velocity” value (HKU4-CoV 3CL^pro; [Compound F2] 50 nM) was 0.1072 and 0.09971 and 0.1255. The “Initial Velocity” value (HKU4-CoV 3CL^pro; [Compound F2] 60 nM) was 0.03996 and 0.02999 and 0.0446, the “Initial Velocity” value (HKU4-CoV 3CL^pro; [Compound F2] 80 nM) was 0.0186 and 0.01858 and 0.02101 and the “Initial Velocity” value (HKU4-CoV 3CL^pro; [Compound F2] 100 nM) was 0.01432 and 0.02363 and 0.01328. For the same compound, the “Initial Velocity” value (HKU4-CoV 3CL^pro; [Compound F2] 400 nM) was 0.004976 and 0.003329 and 0.004577, the Ki (HKU4-CoV 3CL^pro; mean ± SEM) was 0.034 ± 0.079 nM and the Ki (FIPV 3CL^pro) was 0.12 ± 0.1 nM. The IC50 (MATE1; IC50, [14C]Metformin (20 µM)) was 175 µM and the IC50 (MATE1; human, pH 7.4, IC50, [14C]Metformin (20 µM)) was > 20 µM.

COc1cccc2[nH]c(C(=O)N[C@@H](CC(C)C)C(=O)N[C@@H](C[C@@H]3CCNC3=O)C(=O)COP(=O)(O)O)cc12 [PF-07304814] gave a fraction unbound at 6 h, 3.44 uM ([2]; both, Cynomologous, cynomolgus monkey, pH 7.4, Individual fraction unbound, monkey plasma, Cynomologous, male and female, 3.44 uM, Day 1) of 0.388, a fraction unbound at 6 h, 3.44 uM ([2]; both, Cynomologous, cynomolgus monkey, pH 7.4, Individual fraction unbound, monkey plasma, Cynomologous, male and female, 3.44 uM, Day 2) of 0.356 and a fraction unbound at 6 h, 3.44 uM ([2]; both, Cynomologous, cynomolgus monkey, pH 7.4, Individual fraction unbound, monkey plasma, Cynomologous, male and female, 3.44 uM, Day 3) of 0.442. The Individual fraction unbound ([2]; monkey plasma, Cynomologous, male and female, 3.44 uM, Day 1) was 0.366 and 0.39 and 0.393, the Individual fraction unbound ([2]; monkey plasma, Cynomologous, male and female, 3.44 uM, Day 2) was 0.318 and 0.315 and 0.319 and the Individual fraction unbound ([2]; monkey plasma, Cynomologous, male and female, 3.44 uM, Day 3) was 0.37 and 0.354 and 0.347. For the same compound, the fraction unbound at 6 h, 3.44 uM ([2]; monkey, pH 7.4, fraction unbound Geomean, monkey plasma, 3.44 uM, n=12) was 0.361, the “%unchanged in urine” value ([5]; dog IV, PF-07304814 […], PF-00835231 1.0mg/kg) was < 0.1% and the “Total Concn, Mean Data” value ([5]; dog plasma, PF-07304814 prodrug dosed […] intravenous, time 8 h, mean, BLQ=0.1ng/mL) was “BLQ”. The “Urine Concn” value ([5]; dog urine 4-8h, PF-07304814 prodrug dosed […] intravenous, individual dogs, BLQ=1ng/mL for urine) was “BLQ”, the clearance ([5]; CLp, dog IV (n=2, range), PF-07304814 […], PF-00835231 1.0mg/kg) was 517 mL/min/kg and the half-life ([5]; Terminal T1/2, dog IV (n=2, range), PF-07304814 […], PF-00835231 1.0mg/kg) was 30 min. For the same compound, the Vd ([5]; dog IV (n=2, range), PF-07304814 […], PF-00835231 1.0mg/kg) was 9.3 L/kg, the clearance ([5]; […], Clearance, Mean Data, PF-07304814 prodrug dosed […] intravenous, mean) was 517 mL/min/kg and the half-life ([5]; […], Half life, Mean Data, PF-07304814 prodrug dosed […] intravenous, mean) was 30.6 min. For the same compound, the Vd ([5]; […], Mean Data, PF-07304814 prodrug dosed […] intravenous, mean) was 9.3 L/kg, the “Measured blood partitioning / Human blood partitioning” value [6] was 0.6 and the “Plasma concentration (Cp)” value ([6]; Mean) was 1.97 µM. The “Whole blood concentration (Cb)” value ([6]; Mean) was 1.08 µM, the “Plasma concentration (Cp)” value ([6]; individual replicates) was 2.01 µM and 2 µM and 1.9 µM and 1.95 µM and the “Whole blood concentration (Cb)” value ([6]; individual replicates) was 1.11 µM and 1.06 µM and 1.1 µM. The Vmax ([7]; Cyno, best-fit, Two enzyme: MM + Unsaturable) was 1186 pmol/min/mg, the microsomal CLint ([7]; cynomolgus monkey, liver S9, pH 7.5, CL, Cyno, unsaturable component, best-fit) was 3.06 µL/min/mg and the microsomal CLint ([7]; cynomolgus monkey, liver S9, pH 7.5, CLint total, Cyno, (vmax / KM) + CL) was 150 µL/min/mg. For the same compound, the microsomal CLint ([7]; monkey, liver S9, pH 7.5, CLint,2, low affinity kinetic component) was 3.06 µL/min/mg, the microsomal CLint ([7]; monkey, liver S9, pH 7.5, CLint,app) was 150 µL/min/mg and the microsomal CLint ([7]; monkey, liver S9, pH 7.5, CLintu (unbound CLint)) was 168 µL/min/mg. For the same compound, the Km at 20 min ([7]; monkey, monkey liver S9, pH 7.5) was 8.1 µM and the IC50 (MATE1; IC50, [14C]Metformin (20 µM)) was > 300 µM.
